Where two headings read alike, the source gives them in different places.

The conditions of data set [1]: in presence of the formulation based on benzoyl peroxide, cited from earlier work; for Retinoid degraded: calculated.
Data set [2] is described as follows: Chemical stability: assay of adapalene by internal calibration in HPLC. In kind it is physicochemical. The settings on record: composition of Example 2 a); AT; T 3 months. The source says:
Assay of the active by internal calibration in HPLC.
At the starting time (T0) the composition is considered to contain 100% of adapalene. Concentration of adapalene measured in % relative to T0: […]

A short description of data set [3]: Chemical stability: assay of benzoyl peroxide by internal calibration in HPLC. In kind it is physicochemical. Particulars: composition of Example 2 a). The source says: Benzoyl Peroxide: Assay of the active by internal calibration in HPLC. At the starting time (T0) the composition is considered to contain 100% of benzoyl peroxide. Concentration of benzoyl peroxide measured in % relative to T0: […]

For data set [4] the following is noted: in PEG 400 and ethanol; cited from earlier work.
For data set [5] the following is noted: cited from earlier work; for Degradation time: 40° C.

For `CC1=C(/C=C/C(C)=C/C=C/C(C)=C/C(=O)O)C(C)(C)CCC1` [tretinoin], the results for the Retinoid degraded in data set [1] (in 2 hours) and in data set [1] (in 24 hours) were 50% and 95%, respectively.

Take `COc1ccc(-c2ccc3cc(C(=O)O)ccc3c2)cc1C12CC3CC(CC(C3)C1)C2` [Adapalene, 6-(3-(1-adamantyl)-4-methoxyphenyl)-2-naphthoic acid]: in data set [2], the “Concentration of adapalene measured in % relative to T0” value was 97.7%. In addition, in data set [1] (over 24 hours), the “Degradation of the retinoid” value is “no degradation”.

As to `O=C(OOC(=O)c1ccccc1)c1ccccc1` [Benzoyl Peroxide, benzoyl peroxide], the “Concentration of benzoyl peroxide measured in % relative to T0” value in data set [3] (40° C., T 1 month) was 96.3%; in data set [3] (40° C., T 2 months), 81.6%; in data set [3] (40° C., T 3 months) it was 88.7%; in data set [3] (AT, T 0) it was 99.2%; in data set [3] (AT, T 3 months) it was 94.8%. Moreover, in data set [4], the Solubility result was “particularly soluble”. Moreover, the Degradation time in data set [5] (in solution in PEG 400 (0.5 mg/g)) is 1.4 days; in data set [5] (in solution in ethanol) it was 29 days; in data set [5] (in solution in propylene glycol), 53 days. Also, the “Degradation in suspension (dispersed form)” value in data set [5] (in water and propylene glycol, kept for 90 days) was “not degraded”.

The record behind these values is patent US20110318396A1, “DERMATOLOGICAL/COSMETIC COMPOSITIONS COMPRISING A RETINOID AND BENZOYL PEROXIDE” (Galderma Research & Development, priority 2006, published 2011).
